The values that follow come from patent US20100120763A1, “IMIDAZO[5,1-C][1,2,4]BENZOTRIAZINE DERIVATIVES AS INHIBITORS OF PHOSPHODIESTERASES” (priority 2008, published 2010).

Some results are limits rather than exact numbers.

Data set [1] has as its target T1, PDE10A (Homo sapiens, UniProt Q9Y233).
T1 construct: made in house; host or cells: SF21 insect cells (baculovirus)
As to the kind of experiment: Inhibition of recombinant PDE10A (baculovirus/SF21 system), [3H]-cAMP SPA. The class given is biochemical. Conditions: recombinant PDE10A1, cytosolic; 0.1 μM [3H]-cAMP, 37° C., 30 minutes; read-out: PDE10A IC50.

Data set [2] has as its target T2, PDE2A (Homo sapiens, UniProt O00408).
T2 construct: made in house; host or cells: SF21 insect cells (baculovirus)
Briefly: Inhibition of recombinant PDE2A (expressed in baculovirus/SF21-cells), [3H]-cAMP SPA. Format: biochemical. A digest of the protocol: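 Membrane fraction of baculovirus/SF21-expressed PDE2A was incubated 30 min at 37° C in Tris-HCl/MgCl2 pH 7.4 with 0.5 μM [3H]-cAMP and 1000 nM cGMP as activator. Product was detected by SPA scintillation. IC50 used a Hill-plot 2-parameter model.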

T1 sequence (Q9Y233 1-779 isoform Q9Y233-1): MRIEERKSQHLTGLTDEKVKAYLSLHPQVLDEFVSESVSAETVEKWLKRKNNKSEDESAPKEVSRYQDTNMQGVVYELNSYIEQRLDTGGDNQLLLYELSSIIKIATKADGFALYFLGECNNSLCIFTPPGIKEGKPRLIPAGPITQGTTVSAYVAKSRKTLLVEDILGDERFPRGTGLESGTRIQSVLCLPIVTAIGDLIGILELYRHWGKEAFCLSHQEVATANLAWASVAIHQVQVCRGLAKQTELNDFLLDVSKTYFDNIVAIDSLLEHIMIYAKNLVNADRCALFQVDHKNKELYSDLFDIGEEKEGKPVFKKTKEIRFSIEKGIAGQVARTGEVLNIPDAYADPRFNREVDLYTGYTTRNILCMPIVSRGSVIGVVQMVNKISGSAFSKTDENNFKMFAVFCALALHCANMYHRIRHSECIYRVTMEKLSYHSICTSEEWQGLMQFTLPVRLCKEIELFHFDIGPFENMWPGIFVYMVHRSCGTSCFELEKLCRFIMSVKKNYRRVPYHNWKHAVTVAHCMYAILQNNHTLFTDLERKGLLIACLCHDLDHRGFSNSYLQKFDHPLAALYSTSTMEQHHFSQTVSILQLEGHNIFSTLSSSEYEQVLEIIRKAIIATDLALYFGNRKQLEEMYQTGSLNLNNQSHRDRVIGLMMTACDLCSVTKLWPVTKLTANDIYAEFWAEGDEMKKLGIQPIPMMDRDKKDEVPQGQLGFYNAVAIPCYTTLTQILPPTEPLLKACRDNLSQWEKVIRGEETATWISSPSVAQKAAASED
T2 sequence (O00408 whole entry): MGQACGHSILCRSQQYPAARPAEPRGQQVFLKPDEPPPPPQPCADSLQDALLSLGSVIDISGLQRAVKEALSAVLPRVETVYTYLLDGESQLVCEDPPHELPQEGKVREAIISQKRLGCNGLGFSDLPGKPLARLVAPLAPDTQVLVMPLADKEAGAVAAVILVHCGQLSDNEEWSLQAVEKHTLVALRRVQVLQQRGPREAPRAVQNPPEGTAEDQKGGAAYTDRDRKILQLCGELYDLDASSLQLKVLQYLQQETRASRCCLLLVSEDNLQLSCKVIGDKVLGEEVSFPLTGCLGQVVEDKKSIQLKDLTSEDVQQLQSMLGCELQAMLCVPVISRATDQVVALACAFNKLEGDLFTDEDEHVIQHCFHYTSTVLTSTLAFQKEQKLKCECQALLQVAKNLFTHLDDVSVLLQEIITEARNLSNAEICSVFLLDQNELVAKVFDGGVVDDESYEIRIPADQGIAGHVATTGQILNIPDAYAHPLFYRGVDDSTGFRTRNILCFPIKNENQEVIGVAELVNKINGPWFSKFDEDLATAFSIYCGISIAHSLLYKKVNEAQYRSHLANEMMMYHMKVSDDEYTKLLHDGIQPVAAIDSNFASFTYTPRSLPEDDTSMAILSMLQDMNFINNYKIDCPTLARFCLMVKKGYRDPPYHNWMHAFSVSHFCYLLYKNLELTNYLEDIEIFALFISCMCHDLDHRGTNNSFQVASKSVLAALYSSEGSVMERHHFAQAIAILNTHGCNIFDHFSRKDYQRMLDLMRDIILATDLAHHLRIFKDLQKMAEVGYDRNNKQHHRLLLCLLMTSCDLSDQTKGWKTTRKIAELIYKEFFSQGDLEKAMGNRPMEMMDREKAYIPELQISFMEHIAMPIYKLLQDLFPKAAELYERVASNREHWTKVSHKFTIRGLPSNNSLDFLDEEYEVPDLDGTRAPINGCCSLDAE

As for `COc1ccccc1-c1nc(C)c2nnc3cc(F)ccc3n12` [Example 26, 7-fluoro-1-(2-methoxyphenyl)-3-methylbenzo[e]imidazo[5,1-c][1,2,4]triazine], the melting point was in the range of 249 to 251 °C. The IC50 in data set [1] came out at 635 nM. Besides, in data set [2], the half-maximal inhibitory concentration (IC50) was 500 nM.

`Cc1cc(F)ccc1-c1nc(C)c2nnc3cc(F)ccc3n12` [Example 27, 7-fluoro-1-(4-fluoro-2-methylphenyl)-3-methylbenzo[e]imidazo[5,1-c][1,2,4]triazine] yielded a melting point of 181 to 184 °C. Moreover, in data set [1], the IC50 worked out at 911 nM. Besides, the IC50 in data set [2] stood at 298 nM.

As for `Cc1ccccc1-c1nc(C)c2nnc3cc(F)ccc3n12` [Example 28, 7-fluoro-3-methyl-1-o-tolylbenzo[e]imidazo[5,1-c][1,2,4]triazine], the melting point was in the range of 149 to 152 °C. The IC50 in data set [1] turned out to be 359 nM. In addition, in data set [2], the IC50 came out at 122 nM.

As to `COc1ccc(Cl)c(-c2nc(C)c3nnc4cc(F)ccc4n23)c1` [Example 29, 1-(2-chloro-5-methoxyphenyl)-7-fluoro-3-methylbenzo[e]imidazo[5,1-c][1,2,4]triazine], the melting point was in the range of 158 to 161.5 °C. Moreover, in data set [1], the IC50 amounted to 425 nM. The half-inhibitory concentration (IC50) in data set [2] was found to be 35.3 nM.

With `Cc1nc(-c2cc(C(F)(F)F)ccc2F)n2c1nnc1cc(F)ccc12` [Example 30, 7-fluoro-1-(2-fluoro-5-(trifluoromethyl)phenyl)-3-methylbenzo[e]imidazo[5,1-c][1,2,4]triazine], the melting point fell in the range of 205 to 206 °C. Moreover, in data set [1], the IC50 is > 1000 nM. The IC50 in data set [2] was 1790 nM.

`Cc1nc(-c2cc(OC(C)C)ccc2F)n2c1nnc1cc(F)ccc12` [Example 31, 7-fluoro-1-(2-fluoro-5-isopropoxyphenyl)-3-methylbenzo[e]imidazo[5,1-c][1,2,4]triazine] yielded a melting point of 133 to 136 °C. In data set [1], the half-inhibitory concentration (IC50) was found to be 5340 nM. The IC50 in data set [2] was determined as 551 nM.

`COc1ccc2c(c1)nnc1c(C)nc(-c3ccccc3Cl)n12` [Example 34, 1-(2-chlorophenyl)-7-methoxy-3-methylbenzo[e]imidazo[5,1-c][1,2,4]triazine] gave a melting point of 163 to 165 °C. Further, the IC50 in data set [1] was 75.2 nM. The IC50 in data set [2] was determined as 26.7 nM.

As for `COc1ccc2c(c1)nnc1c(C)ncn12` [Example 35, 7-methoxy-3-methylbenzo[e]imidazo[5,1-c][1,2,4]triazine], the melting point is 212 to 215 °C. Also, the concentration for half-maximal inhibition (IC50) in data set [1] was > 5000 nM. The IC50 in data set [2] is > 5000 nM.

In turn, `COc1ccc2c(c1)nnc1c(C)nc(-c3cccnc3C)n12` [Example 36, 7-methoxy-3-methyl-1(2-methylpyridin-3-yl)benzo[e]imidazo[5,1-c][1,2,4]triazine] came in with a melting point of 202 to 205 °C. The IC50 in data set [1] came to 351 nM. Also, the IC50 in data set [2] was found to be 73.4 nM.

Take `Cc1nc(-c2cc(Cl)ccc2Cl)n2c1nnc1ccc(Cl)cc12` [Example 37, 8-chloro-1-(2,5-dichlorophenyl)-3-methylbenzo[e]imidazo[5,1-c][1,2,4]triazine]: the melting point is 188 to 190 °C. The IC50 in data set [1] came to 77.2 nM. Also, the half-inhibitory concentration (IC50) in data set [2] was determined as 5.31 nM.

Compound `Cc1ncccc1-c1nc(C)c2nnc3ccc(Cl)cc3n12` [Example 38, 8-chloro-3-methyl-1-(2-methylpyridin-3-yl)benzo[e]imidazo[5,1-c][1,2,4]triazine] displayed a melting point of 235 to 236 °C. The IC50 in data set [1] came to 207 nM. Besides, the IC50 in data set [2] came to 41.4 nM.

In the case of `Cc1nc(-c2ccnn2C)n2c1nnc1ccc(Cl)cc12` [Example 40, 8-chloro-3-methyl-1-(1-methyl-1H-pyrazol-5-yl)benzo[e]imidazo[5,1-c][1,2,4]triazine], the melting point fell in the range of 230 to 231 °C. In addition, in data set [1], the IC50 was 3940 nM. For the same compound, the 50% inhibitory concentration (IC50) in data set [2] was determined as 1410 nM.

In the case of `Cc1nc(-c2ccccc2C(N)=O)n2c1nnc1ccc(Cl)cc12` [Example 41, 2-(8-chloro-3-methylbenzo[e]imidazo[5,1-c][1,2,4]triazin-1-yl)benzamide], the melting point is 249 to 251 °C. Also, the IC50 in data set [1] was 3120 nM. In data set [2], the IC50 was > 1000 nM.

Compound `Cc1ncn2c1nnc1ccc(Cl)cc12` [Example 42, 8-chloro-3-methylbenzo[e]imidazo[5,1-c][1,2,4]triazine] displayed a melting point of 210 °C. Further, the IC50 in data set [1] is > 10000 nM. For the same compound, the IC50 in data set [2] was > 10000 nM.

`Cc1nc(-c2cc(OC(C)C)ccc2F)n2c1nnc1ccc(Cl)cc12` [Example 43, 8-chloro-1-(2-fluoro-5-isopropoxyphenyl)-3-methylbenzo[e]imidazo[5,1-c][1,2,4]triazine] had a melting point of 174 to 177 °C. The IC50 in data set [1] is > 500 nM. Also, the half-maximal inhibitory concentration (IC50) in data set [2] is 233 nM.

`COc1ccc2nnc3c(C)nc(-c4cc(OC(C)C)ccc4F)n3c2c1` [Example 44, 1-(2-fluoro-5-isopropoxyphenyl)-8-methoxy-3-methylbenzo[e]imidazo[5,1-c][1,2,4]triazine] had a melting point of 204 to 207 °C. Moreover, in data set [1], the IC50 is 1550 nM. Besides, the IC50 in data set [2] amounted to 121 nM.

`COc1cc2nnc3c(C)nc(-c4ccccn4)n3c2cc1OC` [Example 50, 7,8-dimethoxy-3-methyl-1-(pyridin-2-yl)benzo[e]imidazo[5,1-c][1,2,4]triazine] registered a melting point of 199 to 202 °C. The IC50 in data set [1] came out at 71.2 nM. In addition, the IC50 in data set [2] came to 2190 nM.

For `Cc1nc(-c2ccccc2Cl)n2c1nnc1ccc(-c3ccccc3Cl)cc12` [Example 172, 1,8-Bis-(2-chloro-phenyl)-3-methyl-imidazo[5,1-c][1,2,4]benzotriazine], the melting point lay within 172 to 175 °C. In data set [1], the 50% inhibitory concentration (IC50) was determined as 6.55 nM. In addition, the IC50 in data set [2] worked out at 1.28 nM.

In turn, `Cc1nc(-c2cccc(Cl)c2Cl)n2c1nnc1ccc(-c3cccc(Cl)c3Cl)cc12` [Example 173, 1,8-Bis-(2,3-dichloro-phenyl)-3-methyl-imidazo[5,1-c][1,2,4]benzotriazine] yielded a melting point of 207 to 210 °C. In addition, the IC50 in data set [1] was 57.6 nM. Further, in data set [2], the half-maximal inhibitory concentration (IC50) worked out at 61.5 nM.

`CCCOc1ccc(F)c(-c2ccc3nnc4c(C)nc(-c5cc(OCCC)ccc5F)n4c3c2)c1` [Example 174, 1,8-Bis-(2-fluoro-5-propoxy-phenyl)-3-methyl-imidazo[5,1-c][1,2,4]benzotriazine]: the melting point lay within 134 to 136 °C. The concentration for half-maximal inhibition (IC50) in data set [1] is 41.1 nM. Also, the concentration for half-maximal inhibition (IC50) in data set [2] came out at 3.55 nM.

In turn, `CCCCOc1ccc(F)c(-c2ccc3nnc4c(C)nc(-c5cc(OCCCC)ccc5F)n4c3c2)c1` [Example 175, 1,8-Bis-(5-butoxy-2-fluoro-phenyl)-3-methyl-imidazo[5,1-c][1,2,4]benzotriazine] yielded a melting point of 94 to 95 °C. For the same compound, the IC50 in data set [1] was 21.6 nM. Also, in data set [2], the concentration for half-maximal inhibition (IC50) was 0.77 nM.

In turn, `Cc1nc(-c2cc(C(F)(F)F)ccc2F)n2c1nnc1ccc(-c3cc(C(F)(F)F)ccc3F)cc12` [Example 176, 1,8-Bis-(2-fluoro-5-trifluoromethyl-phenyl)-3-methyl-imidazo[5,1-c][1,2,4]benzotriazine] displayed a melting point of 155 to 158 °C. The IC50 in data set [1] was determined as 117 nM. The concentration for half-maximal inhibition (IC50) in data set [2] amounted to 137 nM.

Consider `Cc1nc(-c2ccccc2Cl)n2c1nnc1ccc(N3CCOCC3)cc12` [Example 184, 1-(2-Chloro-phenyl)-3-methyl-8-morpholin-4-yl-imidazo[5,1-c][1,2,4]benzotriazine], for which the melting point fell in the range of 242 to 245 °C. Moreover, the IC50 in data set [1] is 9.77 nM. Further, the concentration for half-maximal inhibition (IC50) in data set [2] turned out to be 6.39 nM.

In turn, `Cc1nc(-c2ccccc2Cl)n2c1nnc1ccc(-n3ccnc3)cc12` [Example 185, 1-(2-Chloro-phenyl)-8-imidazol-1-yl-3-methyl-imidazo[5,1-c][1,2,4]benzotriazine] displayed a melting point of 95 to 98 °C. In addition, the IC50 in data set [1] is 8.97 nM. For the same compound, the IC50 in data set [2] came to 7.14 nM.

`Cc1nc(-c2ccccc2Cl)n2c1nnc1ccc(N3CCN(C)CC3)cc12` [Example 186, 1-(2-Chloro-phenyl)-3-methyl-8-(4-methyl-piperazin-1-yl)-imidazo[5,1-c][1,2,4]benzotriazine]: the melting point worked out at 230 °C. The IC50 in data set [1] turned out to be 9.02 nM. Also, in data set [2], the IC50 is 7.49 nM.

Regarding `Cc1nc(-c2ccccc2Cl)n2c1nnc1ccc(OCc3ccc(F)cc3)cc12` [Example 187, 1-(2-Chloro-phenyl)-8-(4-fluoro-benzyloxy)-3-methyl-imidazo[5,1-c][1,2,4]benzotriazine], the melting point was in the range of 174 to 177 °C. Besides, the IC50 in data set [1] was 24.6 nM. For the same compound, the 50% inhibitory concentration (IC50) in data set [2] amounted to 9.72 nM.
